# Reference: patent US20210324359A1, “USE OF GRAM-NEGATIVE LYSIN-ANTIMICROBIAL PEPTIDE (AMP) POLYPEPTIDE CONSTRUCTS IN TREATING ENDOCARDITIS” (priority 2020, published 2021)
# Tests used:
# [1] = test system: P. aeruginosa isolate CFS 1558 (PA20); format: in vivo
# Procedure: A rabbit pulmonary model was used to assess the efficacy of the GN370 lysin alone and in combination with an antibiotic (meropenem). Initially, rabbits were infected intratracheally with P. aeruginosa isolate CFS 1558 (PA20) (3×10^9 CFU). Treatment commenced 6 hours post-infection.
# P. aeruginosa (PA20) = test: Rabbit infective endocarditis model (Tables 28-32, FIGS. 5-8); format: in vivo, Pseudomonas aeruginosa in rabbits; settings: Meropenem 5 mg/kg
# Procedure: Initially, a polyethylene catheter was placed into the rabbits' right ventricle and secured. 48 hours after catheter placement, rabbits were infected intravenously with P. aeruginosa (PA20) (6×10^9 CFU/mL). Treatment commenced 24 hours post-infection.
# Data were analyzed using the Kruskal-Wallis method for multiple comparison and then adjusted with a false discovery rate approach (Benjamini-Hochberg method), using StatsDirect Software. A p-value of <0.05 was considered statistically significant.
compound,measurement,setting,value
"C[C@@H](O)[C@H]1C(=O)N2C(C(=O)O)=C(S[C@@H]3CN[C@H](C(=O)N(C)C)C3)[C@H](C)[C@H]12 [Meropenem, meropenem, reference compound]",decrease of mean bacterial density in lungs,"[1]; agent alone, compared to the starting CFU and the vehicle control group",about 2 log10 CFU/g
same,"Bacterial burden, Kidneys",[1]; meropenem 20 mg/kg,3.92 ± 0.63 log10 CFU/g
same,"Bacterial burden, Lung 1",[1]; meropenem 20 mg/kg,5.80 ± 0.88 log10 CFU/g
same,"Bacterial burden, Lung 2",[1]; meropenem 20 mg/kg,5.98 ± 1.14 log10 CFU/g
same,"Bacterial burden, Spleen",[1]; meropenem 20 mg/kg,3.62 ± 0.21 log10 CFU/g
same,Log10 CFU/g of vegetation,"[1]; rabbit lung, Meropenem 20 mg/kg",6.12 ± 0.89 Log10 CFU/g
same,"Bacterial burden, Mean",P. aeruginosa (PA20); cardiac vegetation,7.22 log10 CFU/g
same,Mean log10 CFU change v. 24 hr control,P. aeruginosa (PA20); cardiac vegetation,−0.68 log10 CFU
same,Mean log10 CFU change v. vehicle,P. aeruginosa (PA20); cardiac vegetation,−0.13 log10 CFU
same,"Bacterial burden, Mean",P. aeruginosa (PA20); kidney tissue,4.64 log10 CFU/g
same,Mean log10 CFU change v. 24 hr control,P. aeruginosa (PA20); kidney tissue,−1.32 log10 CFU
same,Mean log10 CFU change v. vehicle,P. aeruginosa (PA20); kidney tissue,−0.55 log10 CFU
same,"Bacterial burden, Mean",P. aeruginosa (PA20); lung tissue,3.75 log10 CFU/g
same,Mean log10 CFU change v. 24 hr control,P. aeruginosa (PA20); lung tissue,−1.41 log10 CFU
same,Mean log10 CFU change v. vehicle,P. aeruginosa (PA20); lung tissue,−1.25 log10 CFU
same,"Bacterial burden, Mean",P. aeruginosa (PA20); spleen tissue,3.95 log10 CFU/g
same,Mean log10 CFU change v. 24 hr control,P. aeruginosa (PA20); spleen tissue,−1.00 log10 CFU
same,Mean log10 CFU change v. vehicle,P. aeruginosa (PA20); spleen tissue,−1.62 log10 CFU
